The values below are quoted from earlier work in PubChem BioAssay AID1259409 (Chemical Carcinogenesis Research Information System (CCRIS), 2018).

“And” between values parts separate entries of the source, which are not always exact repeats. Equal values may be shown once.

This data set relates to rodent chemically induced tumor inhibition, incidence and multiplicity. Put plainly: CCRIS tumor inhibitor studies. Conditions: Route [Inhibitor]: ORAL, Promoter: NONE USED.

For the compound `CC(=O)O[C@H]1CC(C)(C)C(=C=C/C(C)=C/C=C/C(C)=C/C=C/C=C(C)/C=C/C=C(\C)C(=O)C[C@@]23O[C@]2(C)C[C@@H](O)CC3(C)C)[C@](C)(O)C1`, the “tumour outcome (control, treated, inhibition, significance)” value (Carcinogen: N-ETHYL-N'-NITRO-N-NITROSOGUANIDINE, 70-25-7, Dose [Inhibitor]: 0, 0.005% IN DRINKING WATER (DISSOLVED IN 50 MG/ML DMSO) FOR 4 WK BEGINNING POST CARCINOGEN TREATMENT FOLLOWED BY 12 WK, Species: MOUSE, Strain/Sex: C57BL/MALE, Target Tissue: Type of Lesion: DUODENUM: TUMORS, Dose [Carcinogen]: 100 MG/L IN DRINKING WATER AD LIBITUM FOR 4 WK) is on record as 14/28 (78%), 13/20 (65%), 17%, not significant; the “tumour outcome (control, treated, inhibition, significance)” value (Carcinogen: N-ETHYL-N'-NITRO-N-NITROSOGUANIDINE, 70-25-7, Dose [Inhibitor]: 0, 0.005% IN DRINKING WATER (DISSOLVED IN 50 MG/ML DMSO) FOR 16 WK BEGINNING POST CARCINOGEN TREATMENT (STUDY DURATION:, Species: MOUSE, Strain/Sex: C57BL/MALE, Target Tissue: Type of Lesion: DUODENUM: TUMORS, Dose [Carcinogen]: 100 MG/L IN DRINKING WATER AD LIBITUM FOR 4 WK) was 14/21 (67%), 7/20 (35%), 48%, p<0.05 and 14/28 (78%), 6/20 (30%), 62%, p<0.005; the “tumour outcome (control, treated, inhibition, significance)” value (Carcinogen: N-ETHYL-N'-NITRO-N-NITROSOGUANIDINE, 4245-77-6, Dose [Inhibitor]: 0, 0.005% IN DRINKING WATER BEGINNING POST CARCINOGEN TREATMENT AND CONTINUING FOR 16 WK (STUDY DURATION: 20 WK), Species: MOUSE, Strain/Sex: C57BL/MALE, Target Tissue: Type of Lesion: DUODENUM: TUMOR, Dose [Carcinogen]: 100 MG/L DRINKING WATER FOR 4 WK) is recorded as 14/21 (67%), 7/20 (35%), 48%, p<0.05.
In the case of `CC(=O)/C=C/C1=C(C)CCCC1(C)C`, the “tumour outcome (control, treated, inhibition, significance)” value is reported as 91%, 41%, 55%, not calculated (Carcinogen: 7,12-DIMETHYLBENZ[A]ANTHRACENE, 57-97-6, Dose [Inhibitor]: 0, 36 MMOL/KG IN DIET FOR 24 WK BEGINNING 2 WK PRIOR TO CARCINOGEN DOSE (STUDY DURATION: 24 WK), Species: RAT, Strain/Sex: SPRAGUE-DAWLEY/FEMALE, Target Tissue: Type of Lesion: MAMMARY GLAND: TUMOR, Dose [Carcinogen]: 65 MG/KG BW ONCE) and 43/118 (36%), 38/118 (32%), 11%, not significant (Dose [Inhibitor]: 0, 1000 PPM IN DIET BEGINNING 8 WK PRIOR TO CARCINOGEN AND CONTINUING FOR 6 WK POST CARCINOGEN (STUDY DURATION: 68 WK), Species: FISH, Strain/Sex: RAINBOW TROUT, Target Tissue: Type of Lesion: LIVER: HEPATOCELLULAR CARCINOMA, Dose [Carcinogen]: 20 PPB IN DIET FOR 2 WK).
In the case of `CC1=C(/C=C/C(C)=C/C=C/C(C)=C/C=C/C=C(C)/C=C/C=C(C)/C=C/C2=C(C)C(=O)[C@@H](O)CC2(C)C)C(C)(C)C[C@H](O)C1=O`, the “tumour outcome (control, treated, inhibition, significance)” value by setting is: (Carcinogen: 4-NITROQUINOLINE-1-OXIDE, 56-57-5, Dose [Inhibitor]: 0, 100 PPM IN DIET FOR 10 WK BEGINNING PRIOR TO CARCINOGEN TREATMENT (STUDY DURATION: 32 WK), Species: RAT, Strain/Sex: F344/MALE, Target Tissue: Type of Lesion: TONGUE: PAPILLOMA, Dose [Carcinogen]: 20 PPM IN DRINKING WATER FOR 8 WK) 4/24 (17%), 0/18 (0%), 100%, p<0.05; (Carcinogen: 4-NITROQUINOLINE-1-OXIDE, 56-57-5, Dose [Inhibitor]: 0, 100 PPM IN DIET FOR 10 WK BEGINNING PRIOR TO CARCINOGEN TREATMENT (STUDY DURATION: 32 WK), Species: RAT, Strain/Sex: F344/MALE, Target Tissue: Type of Lesion: TONGUE: SQUAMOUS CELL CARCINOMA, Dose [Carcinogen]: 20 PPM IN DRINKING WATER FOR 8 WK) 13/24 (54%), 0/18 (0%), 100%, p<0.05; (Carcinogen: 4-NITROQUINOLINE-1-OXIDE, 56-57-5, Dose [Inhibitor]: 0, 100 PPM IN DIET FOR 22 WK BEGINNING 1 WK POST CARCINOGEN TREATMENT (STUDY DURATION: 32 WK), Species: RAT, Strain/Sex: F344/MALE, Target Tissue: Type of Lesion: TONGUE: PAPILLOMA, Dose [Carcinogen]: 20 PPM IN DRINKING WATER FOR 8 WK) 4/24 (17%), 0/20 (0%), 100%, p<0.05; (Carcinogen: 4-NITROQUINOLINE-1-OXIDE, 56-57-5, Dose [Inhibitor]: 0, 100 PPM IN DIET FOR 22 WK BEGINNING 1 WK POST CARCINOGEN TREATMENT (STUDY DURATION: 32 WK), Species: RAT, Strain/Sex: F344/MALE, Target Tissue: Type of Lesion: TONGUE: SQUAMOUS CELL CARCINOMA, Dose [Carcinogen]: 20 PPM IN DRINKING WATER FOR 8 WK) 13/24 (54%), 0/20 (0%), 100%, p<0.05; (Carcinogen: N-BUTYL-N-(4-HYDROXYBUTYL)NITROSAMINE, 3817-11-6, Dose [Inhibitor]: 0, 50 PPM IN DRINKING WATER FOR 2O WK BEGINNING 1 WK POST CARCINOGEN TREATMENT (STUDY DURATION: 41 WK), Species: MOUSE, Strain/Sex: ICR/MALE, Target Tissue: Type of Lesion: URINARY BLADDER: CARCINOMA, Dose [Carcinogen]: 250 PPM IN DRINKING WATER FOR 20 WK) 15/36 (42%), 6/33 (18%), 57%, p<0.05; (Carcinogen: N-BUTYL-N-(4-HYDROXYBUTYL)NITROSAMINE, 3817-11-6, Dose [Inhibitor]: 0, 50 PPM IN DRINKING WATER FOR 20 WK BEGINNING 1 WK POST CARCINOGEN TREATMENT (STUDY DURATION: 41 WK), Species: MOUSE, Strain/Sex: ICR/MALE, Target Tissue: Type of Lesion: URINARY BLADDER: PAPILLOMA, Dose [Carcinogen]: 250 PPM IN DRINKING WATER FOR 20 WK) 2/36 (6%), 4/33 (12%), -100%, not significant.
Take `CC(C)(C)c1cc(C(C)(C)C)c(O)cc1O`: under “Carcinogen: BENZO[A]PYRENE, 50-32-8, Dose [Inhibitor]: 0.03 MMOL/G OF DIET DAILY STARTING 7 D BEFORE AND CONTINUING THROUGH 3 D AFTER CARCINOGEN TREATMENT FOLLOWED BY OBSERVAT, Species: MOUSE, Strain/Sex: ICR/FEMALE, Target Tissue: Type of Lesion: FORESTOMACH: NEOPLASM, Dose [Carcinogen]: 1 MG IN 0.2 ML CORN OIL 2/WK FOR 4 WK”, the “tumour outcome (control, treated, inhibition, significance)” value is given as 94%, 100%, -6%, not significant.
